Reference: ChEMBL document CHEMBL1201862, “PubChem BioAssay data set” (2004)
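Exposure lasted 48 hours, with cells grown in 96-well plates and compounds tested at five concentrations. Abbreviation: GI50, concentration required for 50% inhibition of growth.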 Activity calls are given as the source filed them. No stated cut-off is given here; in the data, active = GI50 up to about 1.1 µM and inactive = higher.

What was measured:
Assay in all cases: growth of human tumour cells (NCI), 48 h
SK-MEL-28 = tested on: SK-MEL-28
MCF7 = tested on: MCF7
MDA-MB-231 = tested on: MDA-MB-231
UACC-62 = tested on: UACC-62
HOP-92 = tested on: HOP-92
OVCAR-3 = tested on: OVCAR-3
SK-MEL-5 = tested on: SK-MEL-5
SNB-19 = tested on: SNB-19
MDA-N = tested on: MDA-N
A549 = tested on: A549
SN12C = tested on: SN12C
CCRF-CEM = tested on: CCRF-CEM
IGROV-1 = tested on: IGROV-1
EKVX = tested on: EKVX
HT-29 = tested on: HT-29
NCI/ADR-RES = tested on: NCI/ADR-RES
ACHN = tested on: ACHN
K562 = tested on: K562
SF-539 = tested on: SF-539
HL-60 = tested on: HL-60
U-251 = tested on: U-251
786-0 = tested on: 786-0
SR = tested on: SR
TK-10 = tested on: TK-10
HOP-62 = tested on: HOP-62
NCI-H460 = tested on: NCI-H460
NCI-H23 = tested on: NCI-H23
SK-MEL-2 = tested on: SK-MEL-2
RXF 393 = tested on: RXF 393
T47D = tested on: T47D
SK-OV-3 = tested on: SK-OV-3
SF-268 = tested on: SF-268
UO-31 = tested on: UO-31
HCT-15 = tested on: HCT-15
Malme-3M = tested on: Malme-3M
DU-145 = tested on: DU-145
HCT-116 = tested on: HCT-116
NCI-H226 = tested on: NCI-H226
Hs-578T = tested on: Hs-578T
HCC 2998 = tested on: HCC 2998
SW-620 = tested on: SW-620
M14 = tested on: M14
LOX IMVI = tested on: LOX IMVI
OVCAR-8 = tested on: OVCAR-8
SF-295 = tested on: SF-295
COLO 205 = tested on: COLO 205
MOLT-4 = tested on: MOLT-4
CAKI-1 = tested on: CAKI-1
OVCAR-4 = tested on: OVCAR-4
MDA-MB-435 = tested on: MDA-MB-435
UACC-257 = tested on: UACC-257
OVCAR-5 = tested on: OVCAR-5
RPMI-8226 = tested on: RPMI-8226
PC-3 = tested on: PC-3
KM12 = tested on: KM12
NCI-H522 = tested on: NCI-H522
SNB-75 = tested on: SNB-75
A498 = tested on: A498

Compound: O=C(O)c1nn(-c2ccccc2)nc1-c1nn(-c2ccccc2)nc1C(=O)O
- GI50 (SK-MEL-28): > 100 µM (inactive)
- GI50 (MCF7): > 100 µM (inactive)
- GI50 (MDA-MB-231): > 100 µM (inactive)
- GI50 (UACC-62): > 100 µM (inactive)
- GI50 (HOP-92): > 100 µM (inactive)
- GI50 (OVCAR-3): > 100 µM (inactive)
- GI50 (SK-MEL-5): > 100 µM (inactive)
- GI50 (SNB-19): > 100 µM (inactive)
- GI50 (MDA-N): > 100 µM (inactive)
- GI50 (A549): > 100 µM (inactive)
- GI50 (SN12C): > 100 µM (inactive)
- GI50 (CCRF-CEM): > 100 µM (inactive)
- GI50 (IGROV-1): > 100 µM (inactive)
- GI50 (EKVX): > 100 µM (inactive)
- GI50 (HT-29): > 100 µM (inactive)
- GI50 (NCI/ADR-RES): > 100 µM (inactive)
- GI50 (ACHN): > 100 µM (inactive)
- GI50 (K562): > 100 µM (inactive)
- GI50 (SF-539): > 100 µM (inactive)
- GI50 (HL-60): > 100 µM (inactive)
- GI50 (U-251): > 100 µM (inactive)
- GI50 (786-0): > 100 µM (inactive)
- GI50 (SR): > 100 µM (inactive)
- GI50 (TK-10): > 100 µM (inactive)
- GI50 (HOP-62): > 100 µM (inactive)
- GI50 (NCI-H460): > 100 µM (inactive)
- GI50 (NCI-H23): > 100 µM (inactive)
- GI50 (SK-MEL-2): > 100 µM (inactive)
- GI50 (RXF 393): > 100 µM (inactive)
- GI50 (T47D): > 100 µM (inactive)
- GI50 (SK-OV-3): > 100 µM (inactive)
- GI50 (SF-268): > 100 µM (inactive)
- GI50 (UO-31): > 100 µM (inactive)
- GI50 (HCT-15): > 100 µM
- GI50 (Malme-3M): > 100 µM (inactive)
- GI50 (DU-145): > 100 µM (inactive)
- GI50 (HCT-116): > 100 µM (inactive)
- GI50 (NCI-H226): > 100 µM (inactive)
- GI50 (Hs-578T): > 100 µM (inactive)
- GI50 (HCC 2998): > 100 µM (inactive)
- GI50 (SW-620): > 100 µM (inactive)
- GI50 (M14): > 100 µM (inactive)
- GI50 (LOX IMVI): > 100 µM (inactive)
- GI50 (OVCAR-8): > 100 µM (inactive)
- GI50 (SF-295): > 100 µM (inactive)
- GI50 (COLO 205): > 100 µM (inactive)
- GI50 (MOLT-4): > 100 µM (inactive)
- GI50 (CAKI-1): > 100 µM (inactive)
- GI50 (OVCAR-4): > 100 µM (inactive)
- GI50 (MDA-MB-435): > 100 µM (inactive)
- GI50 (UACC-257): > 100 µM (inactive)
- GI50 (OVCAR-5): > 100 µM (inactive)
- GI50 (RPMI-8226): > 100 µM (inactive)
- GI50 (PC-3): > 100 µM (inactive)
- GI50 (KM12): > 100 µM (inactive)

Compound: C[N+](C)(N)c1nc(N)c(C#N)c(C#N)c1C#N
- GI50 (SK-MEL-28): > 10 µM (inactive)
- GI50 (MCF7): > 10 µM (inactive)
- GI50 (MDA-MB-231): > 10 µM (inactive)
- GI50 (UACC-62): > 10 µM (inactive)
- GI50 (OVCAR-3): 1.91 µM (inactive)
- GI50 (SK-MEL-5): > 10 µM (inactive)
- GI50 (SNB-19): > 10 µM (inactive)
- GI50 (MDA-N): > 10 µM (inactive)
- GI50 (A549): > 10 µM (inactive)
- GI50 (SN12C): > 10 µM (inactive)
- GI50 (CCRF-CEM): > 10 µM (inactive)
- GI50 (IGROV-1): > 10 µM (inactive)
- GI50 (EKVX): > 10 µM (inactive)
- GI50 (NCI-H522): > 10 µM (inactive)
- GI50 (HT-29): > 10 µM (inactive)
- GI50 (NCI/ADR-RES): > 10 µM (inactive)
- GI50 (ACHN): > 10 µM (inactive)
- GI50 (K562): 7.01 µM (inactive)
- GI50 (SF-539): > 10 µM (inactive)
- GI50 (HL-60): > 10 µM (inactive)
- GI50 (U-251): > 10 µM (inactive)
- GI50 (SR): > 10 µM (inactive)
- GI50 (TK-10): > 10 µM (inactive)
- GI50 (HOP-62): > 10 µM (inactive)
- GI50 (NCI-H460): > 10 µM (inactive)
- GI50 (NCI-H23): > 10 µM (inactive)
- GI50 (SK-MEL-2): > 10 µM (inactive)
- GI50 (RXF 393): > 10 µM (inactive)
- GI50 (T47D): > 10 µM (inactive)
- GI50 (SK-OV-3): > 10 µM (inactive)
- GI50 (SNB-75): > 10 µM (inactive)
- GI50 (A498): > 10 µM (inactive)
- GI50 (SF-268): > 10 µM (inactive)
- GI50 (UO-31): > 10 µM (inactive)
- GI50 (HCT-15): > 10 µM
- GI50 (Malme-3M): > 10 µM (inactive)
- GI50 (DU-145): > 10 µM (inactive)
- GI50 (HCT-116): > 10 µM (inactive)
- GI50 (NCI-H226): > 10 µM (inactive)
- GI50 (Hs-578T): > 10 µM (inactive)
- GI50 (HCC 2998): > 10 µM (inactive)
- GI50 (SW-620): > 10 µM (inactive)
- GI50 (M14): > 10 µM (inactive)
- GI50 (LOX IMVI): > 10 µM (inactive)
- GI50 (OVCAR-8): > 10 µM (inactive)
- GI50 (SF-295): > 10 µM (inactive)
- GI50 (COLO 205): > 10 µM (inactive)
- GI50 (MOLT-4): > 10 µM (inactive)
- GI50 (CAKI-1): > 10 µM (inactive)
- GI50 (OVCAR-4): > 10 µM (inactive)
- GI50 (MDA-MB-435): > 10 µM (inactive)
- GI50 (OVCAR-5): > 10 µM (inactive)
- GI50 (RPMI-8226): > 10 µM (inactive)
- GI50 (PC-3): > 10 µM (inactive)
